Assay results as given in patent US20150323520A1, “DIAGNOSIS OF KIDNEY TRANSPLANT ACUTE REJECTION” (The Trustees of the Stevens Institute of Technology, priority 2014, published 2015).

Test: Mannitol in urine of kidney transplant patients the day after surgery (SERS / ESI-MS)
Assay type: in vivo
Text: FIG. 2 is a graph 200 showing SERS spectra for patients who have received kidney transplants and are experiencing AR. The graph 200 plots Raman intensity, in arbitrary units (“a.u.”), along a vertical axis 210 against Raman shift, in cm^−1, along a horizontal axis 220. As a baseline, the chart 200 includes a background spectrum 230 that may be measured when a SERS sensor (e.g., the device 100 of FIG. 1) is immersed in water. The chart 200 also includes three SERS spectra 240, 250, 260 that may be measured when the same SERS sensor is immersed in urine samples of three AR patients. It may be observed that each of the three SERS spectra 240, 250, 260 includes a corresponding peak 242, 252, 262, at a value of about 1360 cm^−1 along the horizontal axis 220. FIG. 3 is a graph 300 showing SERS spectra for patients who have received kidney transplants and are not experiencing AR. The graph 300 plots Raman intensity, in arbitrary units (“a.u.”), along a vertical axis 310 against Raman shift, in cm^−1, along a horizontal axis 320. As a baseline, the chart 300 includes a background spectrum 330 that may be measured when a SERS sensor (e.g., the device 100 of FIG. 1) is immersed in water (e.g., the same background spectrum as is shown in FIG. 2). The chart 300 also includes three SERS spectra 340, 350, 360 that may be measured when the same SERS sensor is immersed in urine samples of three kidney transplant recipients who are not experiencing AR. It may be observed that the three SERS spectra 340, 350, 360 lack a peak at a value of 1360 cm^−1 along the horizontal axis 320. […] The chart 500 includes a SERS spectrum 530 measured when a SERS sensor (e.g., the device 100 of FIG. 1) is immersed in a urine sample of a kidney transplant recipient who is experiencing graft failure. […] The spectra 610, 620, 630 plot intensity, an expression of relative abundance expressed as a percentage, along a vertical axis 640 against mass-to-charge ratio m/z, an expression of the ratio of atomic mass to charge number, which is a dimensionless quantity, along a horizontal axis 650. […]

Structure (SMILES): OC[C@@H](O)[C@@H](O)[C@H](O)[C@H](O)CO [mannitol]
- mannitol in the urine (patients experiencing acute rejection (AR), urine 24 hours after surgery, mannitol (e.g., 20 grams) given during kidney transplant surgery): high levels
- metabolism of mannitol (patients experiencing graft failure, SERS peak at 1360 cm^-1 in urine (FIG. 5)): do not metabolize mannitol well
- mannitol in patients' urine (transplant patients whose surgery is successful (no AR), urine 24 hours after surgery, mannitol (e.g., 20 grams) given during kidney transplant surgery): barely detectable
